Measured values from publication PMC6262408, “Recovery of the Peptidoglycan Turnover Product Released by the Autolysin Atl in Staphylococcus aureus Involves the Phosphotransferase System Transporter MurP and the Novel 6-phospho-N-acetylmuramidase MupG” (Frontiers in Microbiology, 2018).

Target: T1, MupG (Staphylococcus aureus, UniProt A0A0H2XHV5)
T1 sequence (A0A0H2XHV5 1-351): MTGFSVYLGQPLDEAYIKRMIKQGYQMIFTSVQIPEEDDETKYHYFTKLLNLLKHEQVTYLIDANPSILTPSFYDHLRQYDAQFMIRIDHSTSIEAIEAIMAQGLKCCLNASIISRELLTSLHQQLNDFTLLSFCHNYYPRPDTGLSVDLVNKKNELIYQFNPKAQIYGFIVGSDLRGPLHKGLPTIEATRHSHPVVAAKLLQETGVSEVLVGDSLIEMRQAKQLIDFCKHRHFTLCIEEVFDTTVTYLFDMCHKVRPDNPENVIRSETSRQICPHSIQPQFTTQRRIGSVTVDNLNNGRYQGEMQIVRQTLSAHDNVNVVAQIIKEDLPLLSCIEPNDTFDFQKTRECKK
Experiment: LC-MS of hydrolysis by recombinant enzyme
Assay type: biochemical
Conditions: substrate in acetone extract of ΔmupG cytosol; 1 μg enzyme, 2.5 h, 37 °C; products MurNAc 6P and GlcNAc

CC(=O)N[C@H]1[C@H](O[C@H]2[C@H](O)[C@@H](NC(C)=O)C(O)O[C@@H]2CO)O[C@H](COP(=O)(O)O)[C@@H](O)[C@@H]1O[C@H](C)C(=O)O (stereo partly shown) [MurNAc 6P-GlcNAc]
LC-MS of hydrolysis by recombinant enzyme: recombinantly produced MupG cleaved MurNAc 6P-GlcNAc, releasing MurNAc 6P and GlcNAc
